# Data taken from paper PMC10384657 (Virus Research, 2023).
# Tests used:
# Vero E6 cells = settings: 72 h
# [1] = test system: MPER25c peptide (S2 membrane proximal region derived); type: binding, SARS-CoV-2
smiles,measurement,setting,value
CC[C@H](C)[C@H](NC(=O)[C@H](CCC(N)=O)NC(=O)[C@H](CC(C)C)NC(=O)[C@H](C)NC(=O)[C@H](C)NC(=O)CNC(=O)[C@H](C)NC(=O)CNC(=O)[C@H](Cc1ccccc1)NC(=O)[C@@H](NC(=O)[C@H](Cc1c[nH]c2ccccc12)NC(=O)CNC(=O)[C@H](CO)NC(C)=O)[C@@H](C)O)C(=O)N1CCC[C@H]1C(=O)N[C@@H](Cc1ccccc1)C(=O)N[C@@H](C)C(=O)N[C@@H](CCSC)C(N)=O [PC17],CC50 (mean ± SD),Vero E6 cells,> 100 µM
CC[C@H](C)[C@H](NC(=O)[C@H](CCC(N)=O)NC(=O)[C@H](CC(C)C)NC(=O)[C@H](C)NC(=O)[C@H](C)NC(=O)CNC(=O)[C@H](C)NC(=O)CNC(=O)[C@H](Cc1ccccc1)NC(=O)[C@@H](NC(=O)[C@H](Cc1c[nH]c2ccccc12)NC(=O)CNC(=O)[C@H](CO)NC(C)=O)[C@@H](C)O)C(=O)N1CCC[C@H]1C(=O)N[C@@H](Cc1ccccc1)C(=O)N[C@@H](C)C(=O)N[C@@H](CCSC)C(=O)N[C@@H](CCC(N)=O)C(=O)N[C@@H](CCSC)C(N)=O [PC19],CC50 (mean ± SD),Vero E6 cells,> 100 µM
CSCC[C@H](NC(=O)[C@H](C)NC(=O)[C@H](Cc1ccccc1)NC(C)=O)C(=O)N[C@@H](CCC(N)=O)C(=O)N[C@@H](CCSC)C(=O)N[C@@H](C)C(=O)N[C@@H](Cc1ccc(O)cc1)C(=O)N[C@@H](CCCNC(=N)N)C(=O)N[C@@H](Cc1ccccc1)C(N)=O [PN9],CC50 (mean ± SD),Vero E6 cells,> 100 µM
CC[C@H](C)[C@H](NC(=O)[C@H](CCC(N)=O)NC(=O)[C@H](CC(C)C)NC(C)=O)C(=O)N1CCC[C@H]1C(=O)N[C@@H](Cc1ccccc1)C(=O)N[C@@H](C)C(=O)N[C@@H](CCSC)C(=O)N[C@@H](CCC(N)=O)C(=O)N[C@@H](CCSC)C(=O)N[C@@H](C)C(=O)N[C@@H](Cc1ccc(O)cc1)C(=O)N[C@@H](CCCNC(=N)N)C(=O)N[C@@H](Cc1ccccc1)C(N)=O [PN13],CC50 (mean ± SD),Vero E6 cells,> 100 µM
CC[C@H](C)[C@H](NC(=O)[C@H](CCC(N)=O)NC(=O)[C@H](CC(C)C)NC(=O)[C@H](C)NC(=O)[C@H](C)NC(=O)CNC(=O)[C@H](C)NC(C)=O)C(=O)N1CCC[C@H]1C(=O)N[C@@H](Cc1ccccc1)C(=O)N[C@@H](C)C(=O)N[C@@H](CCSC)C(=O)N[C@@H](CCC(N)=O)C(=O)N[C@@H](CCSC)C(=O)N[C@@H](C)C(=O)N[C@@H](Cc1ccc(O)cc1)C(=O)N[C@@H](CCCNC(=N)N)C(=O)N[C@@H](Cc1ccccc1)C(N)=O [PN17],CC50 (mean ± SD),Vero E6 cells,> 100 µM
CC[C@H](C)[C@H](NC(=O)[C@H](CCC(N)=O)NC(=O)[C@H](CC(C)C)NC(=O)[C@H](C)NC(=O)[C@H](C)NC(=O)CNC(=O)[C@H](C)NC(=O)CNC(=O)[C@H](C)NC(C)=O)C(=O)N1CCC[C@H]1C(=O)N[C@@H](Cc1ccccc1)C(=O)N[C@@H](C)C(=O)N[C@@H](CCSC)C(=O)N[C@@H](CCC(N)=O)C(=O)N[C@@H](CCSC)C(=O)N[C@@H](C)C(=O)N[C@@H](Cc1ccc(O)cc1)C(=O)N[C@@H](CCCNC(=N)N)C(=O)N[C@@H](Cc1ccccc1)C(N)=O [PN19F→A888],CC50 (mean ± SD),Vero E6 cells,> 100 µM
CC[C@H](C)[C@H](NC(=O)[C@H](CCC(N)=O)NC(=O)[C@H](CC(C)C)NC(=O)[C@H](C)NC(=O)[C@H](C)NC(=O)CNC(=O)[C@H](C)NC(=O)CNC(=O)[C@H](Cc1ccccc1)NC(C)=O)C(=O)N1CCC[C@H]1C(=O)N[C@@H](C)C(=O)N[C@@H](C)C(=O)N[C@@H](CCSC)C(=O)N[C@@H](CCC(N)=O)C(=O)N[C@@H](CCSC)C(=O)N[C@@H](C)C(=O)N[C@@H](Cc1ccc(O)cc1)C(=O)N[C@@H](CCCNC(=N)N)C(=O)N[C@@H](Cc1ccccc1)C(N)=O [PN19F→A898],fold lower binding activity to immobilized MPER25c than PN19,[1],2-3 fold
same,CC50 (mean ± SD),Vero E6 cells,> 100 µM
CC[C@H](C)[C@H](NC(=O)[C@H](CCC(N)=O)NC(=O)[C@H](CC(C)C)NC(=O)[C@H](C)NC(=O)[C@H](C)NC(=O)CNC(=O)[C@H](C)NC(=O)CNC(=O)[C@H](Cc1ccccc1)NC(C)=O)C(=O)N1CCC[C@H]1C(=O)N[C@@H](Cc1ccccc1)C(=O)N[C@@H](C)C(=O)N[C@@H](CCSC)C(=O)N[C@@H](CCC(N)=O)C(=O)N[C@@H](CCSC)C(=O)N[C@@H](C)C(=O)N[C@@H](Cc1ccc(O)cc1)C(=O)N[C@@H](CCCNC(=N)N)C(=O)N[C@@H](C)C(N)=O [PN19F→A906],fold lower binding activity to immobilized MPER25c than PN19,[1],2-3 fold
same,CC50 (mean ± SD),Vero E6 cells,> 100 µM
CSCC[C@H](NC(=O)[C@H](C)NC(=O)[C@H](Cc1ccccc1)NC(=O)[C@@H]1CCCN1C(=O)[C@H](C)NC(=O)[C@H](CCC(N)=O)NC(=O)[C@H](CC(C)C)NC(=O)[C@H](C)NC(=O)[C@H](C)NC(=O)CNC(=O)[C@H](C)NC(=O)CNC(=O)[C@H](Cc1ccccc1)NC(C)=O)C(=O)N[C@@H](CCC(N)=O)C(=O)N[C@@H](CCSC)C(=O)N[C@@H](C)C(=O)N[C@@H](Cc1ccc(O)cc1)C(=O)N[C@@H](CCCNC(=N)N)C(=O)N[C@@H](Cc1ccccc1)C(N)=O [PN19I→A896],CC50 (mean ± SD),Vero E6 cells,> 100 µM
CC[C@H](C)[C@H](NC(=O)[C@H](CCC(N)=O)NC(=O)[C@H](C)NC(=O)[C@H](C)NC(=O)[C@H](C)NC(=O)CNC(=O)[C@H](C)NC(=O)CNC(=O)[C@H](Cc1ccccc1)NC(C)=O)C(=O)N1CCC[C@H]1C(=O)N[C@@H](Cc1ccccc1)C(=O)N[C@@H](C)C(=O)N[C@@H](CCSC)C(=O)N[C@@H](CCC(N)=O)C(=O)N[C@@H](CCSC)C(=O)N[C@@H](C)C(=O)N[C@@H](Cc1ccc(O)cc1)C(=O)N[C@@H](CCCNC(=N)N)C(=O)N[C@@H](Cc1ccccc1)C(N)=O [PN19L→A894],CC50 (mean ± SD),Vero E6 cells,> 100 µM
CC[C@H](C)[C@H](NC(=O)[C@H](CCC(N)=O)NC(=O)[C@H](CC(C)C)NC(=O)[C@H](C)NC(=O)[C@H](C)NC(=O)CNC(=O)[C@H](C)NC(=O)CNC(=O)[C@H](Cc1ccccc1)NC(C)=O)C(=O)N1CCC[C@H]1C(=O)N[C@@H](Cc1ccccc1)C(=O)N[C@@H](C)C(=O)N[C@@H](C)C(=O)N[C@@H](CCC(N)=O)C(=O)N[C@@H](CCSC)C(=O)N[C@@H](C)C(=O)N[C@@H](Cc1ccc(O)cc1)C(=O)N[C@@H](CCCNC(=N)N)C(=O)N[C@@H](Cc1ccccc1)C(N)=O [PN19M→A900],CC50 (mean ± SD),Vero E6 cells,> 100 µM
CC[C@H](C)[C@H](NC(=O)[C@H](CCC(N)=O)NC(=O)[C@H](CC(C)C)NC(=O)[C@H](C)NC(=O)[C@H](C)NC(=O)CNC(=O)[C@H](C)NC(=O)CNC(=O)[C@H](Cc1ccccc1)NC(C)=O)C(=O)N1CCC[C@H]1C(=O)N[C@@H](Cc1ccccc1)C(=O)N[C@@H](C)C(=O)N[C@@H](CCSC)C(=O)N[C@@H](CCC(N)=O)C(=O)N[C@@H](C)C(=O)N[C@@H](C)C(=O)N[C@@H](Cc1ccc(O)cc1)C(=O)N[C@@H](CCCNC(=N)N)C(=O)N[C@@H](Cc1ccccc1)C(N)=O [PN19M→A902],CC50 (mean ± SD),Vero E6 cells,> 100 µM
CC[C@H](C)[C@H](NC(=O)[C@H](CCC(N)=O)NC(=O)[C@H](CC(C)C)NC(=O)[C@H](C)NC(=O)[C@H](C)NC(=O)CNC(=O)[C@H](C)NC(=O)CNC(=O)[C@H](Cc1ccccc1)NC(C)=O)C(=O)N[C@@H](C)C(=O)N[C@@H](Cc1ccccc1)C(=O)N[C@@H](C)C(=O)N[C@@H](CCSC)C(=O)N[C@@H](CCC(N)=O)C(=O)N[C@@H](CCSC)C(=O)N[C@@H](C)C(=O)N[C@@H](Cc1ccc(O)cc1)C(=O)N[C@@H](CCCNC(=N)N)C(=O)N[C@@H](Cc1ccccc1)C(N)=O [PN19P→A897],CC50 (mean ± SD),Vero E6 cells,> 100 µM
CC[C@H](C)[C@H](NC(=O)[C@H](C)NC(=O)[C@H](CC(C)C)NC(=O)[C@H](C)NC(=O)[C@H](C)NC(=O)CNC(=O)[C@H](C)NC(=O)CNC(=O)[C@H](Cc1ccccc1)NC(C)=O)C(=O)N1CCC[C@H]1C(=O)N[C@@H](Cc1ccccc1)C(=O)N[C@@H](C)C(=O)N[C@@H](CCSC)C(=O)N[C@@H](CCC(N)=O)C(=O)N[C@@H](CCSC)C(=O)N[C@@H](C)C(=O)N[C@@H](Cc1ccc(O)cc1)C(=O)N[C@@H](CCCNC(=N)N)C(=O)N[C@@H](Cc1ccccc1)C(N)=O [PN19Q→A895],CC50 (mean ± SD),Vero E6 cells,>100 µM
CC[C@H](C)[C@H](NC(=O)[C@H](CCC(N)=O)NC(=O)[C@H](CC(C)C)NC(=O)[C@H](C)NC(=O)[C@H](C)NC(=O)CNC(=O)[C@H](C)NC(=O)CNC(=O)[C@H](Cc1ccccc1)NC(C)=O)C(=O)N1CCC[C@H]1C(=O)N[C@@H](Cc1ccccc1)C(=O)N[C@@H](C)C(=O)N[C@@H](CCSC)C(=O)N[C@@H](C)C(=O)N[C@@H](CCSC)C(=O)N[C@@H](C)C(=O)N[C@@H](Cc1ccc(O)cc1)C(=O)N[C@@H](CCCNC(=N)N)C(=O)N[C@@H](Cc1ccccc1)C(N)=O [PN19Q→A901],CC50 (mean ± SD),Vero E6 cells,> 100 µM
CC[C@H](C)[C@H](NC(=O)[C@H](CCC(N)=O)NC(=O)[C@H](CC(C)C)NC(=O)[C@H](C)NC(=O)[C@H](C)NC(=O)CNC(=O)[C@H](C)NC(=O)CNC(=O)[C@H](Cc1ccccc1)NC(C)=O)C(=O)N1CCC[C@H]1C(=O)N[C@@H](Cc1ccccc1)C(=O)N[C@@H](C)C(=O)N[C@@H](CCSC)C(=O)N[C@@H](CCC(N)=O)C(=O)N[C@@H](CCSC)C(=O)N[C@@H](C)C(=O)N[C@@H](Cc1ccc(O)cc1)C(=O)N[C@@H](C)C(=O)N[C@@H](Cc1ccccc1)C(N)=O [PN19R→A905],CC50 (mean ± SD),Vero E6 cells,> 100 µM
CC[C@H](C)[C@H](NC(=O)[C@H](CCC(N)=O)NC(=O)[C@H](CC(C)C)NC(=O)[C@H](C)NC(=O)[C@H](C)NC(=O)CNC(=O)[C@H](C)NC(=O)CNC(=O)[C@H](Cc1ccccc1)NC(C)=O)C(=O)N1CCC[C@H]1C(=O)N[C@@H](Cc1ccccc1)C(=O)N[C@@H](C)C(=O)N[C@@H](CCSC)C(=O)N[C@@H](CCC(N)=O)C(=O)N[C@@H](CCSC)C(N)=O [PNC15],CC50 (mean ± SD),Vero E6 cells,> 100 µM
CC[C@H](C)[C@H](NC(=O)[C@H](CCC(N)=O)NC(=O)[C@H](CC(C)C)NC(=O)[C@H](C)NC(=O)[C@H](C)NC(=O)CNC(=O)[C@H](C)NC(=O)CNC(=O)[C@H](Cc1ccccc1)NC(=O)[C@@H](NC(=O)[C@H](Cc1c[nH]c2ccccc12)NC(C)=O)[C@@H](C)O)C(=O)N1CCC[C@H]1C(=O)N[C@@H](Cc1ccccc1)C(=O)N[C@@H](C)C(=O)N[C@@H](CCSC)C(=O)N[C@@H](CCC(N)=O)C(=O)N[C@@H](CCSC)C(=O)N[C@@H](C)C(=O)N[C@@H](Cc1ccc(O)cc1)C(N)=O [PNC19],CC50 (mean ± SD),Vero E6 cells,> 100 µM
